This note sets out measurements from US4548750A, “Pyrimido[4,5-d][2]benzazepines useful as sedatives and anxiolytic agents” (Hoffmann-La Roche Inc., priority 1983, dated 1985).

Molecules are shown by their SMILES. Bounds are passed on as bounds.

The test system of one data set is male mice. Put plainly: Inclined Screen (paralyzing effects causing mice to slide off the screen). The data set is classed as in vivo. To be noted: Mus musculus; groups of 6 male mice; at least 4 hours observation; maximum dose 500 mg/kg; read-out: Inclined Screen (PD50). As to the method: Groups of 6 male mice are given the test drug (maximum dose of 500 mg/kg) and then are left on the inclined screen at least 4 hours for observation of paralyzing effects severe enough to cause them to slide off the screen. If activity is observed, additional doses are taken until at least two are reached at which some, but not all of the animals slide off the screen. Doses at which mice fall off the screen due to toxicity or excitation are not included in the calculation of PD50.

A further data set is described as follows: Toxicity (LD50). The settings on record: in vivo; PO; species not given.
For another data set, the system named is Cats. Put plainly: Unanesthetized Cat (minimum symptoms, usually ataxia). The class given is in vivo. The settings on record: Felis catus, po, cats treated orally. As to the method:
Cats are treated orally and observed for minimum symptoms--usually ataxia. One cat is used at a dose of 50 mg/kg. If activity is present, up to three cats/dose are used. Results are given as minimum effective dose.

The test system of the next data set is mice. Nature of the data set: Footshock (blocking of footshock-induced fighting in pairs of mice). The data set is classed as in vivo. The settings on record: Mus musculus; pairs of mice pretreated 1 hour prior to second shocking; 3 out of 3 pairs must be blocked from fighting; maximum dose 100 mg/kg. The procedure: A pair of mice is confined under a one liter beaker placed on a grid which presents shock to the feet. At least 5 fighting episodes are elicited in a two-minute period. Pairs of mice are marked and pretreated 1 hour prior to a second shocking. Logarithmic dose intervals are utilized up to a maximum of 100 mg/kg. At the 100% blocking dose, 3 out of 3 pairs must be blocked from fighting.

What is called LD50 is the dose at which mortality reaches 50%. A higher LD50 goes with a less toxic substance. Broadly, the minimal effective dose is the smallest amount tested that counted as effective. Higher therefore signals a need for much substance. As to `Cc1nc(Cl)c2c(n1)CN=C(c1ccccc1)c1cc(Cl)ccc1-2` [1,9-Dichloro-3-methyl-7-phenyl-5H-pyrimido[4,5-d][2]benzazepine], the ED50 in the data set on male mice came to 400 mg/kg. In addition, in the data set “Toxicity (LD50)”, the LD50 is > 1000 mg/kg. For the same compound, in the data set with Cats, the minimal effective dose was found to be 10 mg/kg. For the same compound, the ED100 in the data set on mice is 10 mg/kg.
